Counter-ions that a name gives are not always drawn.
What was measured:
[1] = tested on: leukemic cells; details: Tidwell et al., Blood, 57, 794 (1981); cited from earlier work
[2] = tested on: carageenin-induced edema (rat paw swelling); test: Carageenin-induced edema (acute inflammation) model, rat paw swelling; format: in vivo; details: 25 mg/kg oral, at 4 hours, group of 5 rats
Text: It is well known that free arachidonic acid may be processed into potent inflammatory mediators such as the leukotrienes, prostaglandins, thromboxane A2 and prostacyclin. Inhibition of the release of arachidonic acid could result in a lowered inflammatory response.

[3] = tested on: release of arachidonic acid from membrane phospholipids (rabbit neutrophils); test: Inhibition of release of arachidonic acid from membrane phospholipids in glycogen-elicited rabbit neutrophils; format: cell-based; details: A-23187 0.5 mcg/ml activation, 5 minutes pretreatment at 37° C.
Description: In this procedure, glycogen-elicited rabbit neutrophils are labelled with ^14 C-arachidonic acid by incubation for one hour at 37° C. and followed by treatment with the compound under test at 37° C. for 5 minutes. The cells were then activated by addition of 0.5 mcg/ml of A-23187 (an ionophore) for 5 minutes. Cellular metabolism was stopped; the membrane lipids extracted; and the extracted lipids chromatographed on TLC plates. Assays were conducted for free ^14 C-arachidonic acid and hydroxy^14 C-eicosatetraenoic acid (HETES) using a radiochromatogram scanner.

[4] = tested on: X-5563 plasma cell myeloma; test: Antitumor activity vs X-5563 plasma cell myeloma in mice; format: in vivo; details: daily for 10 days after inoculation
Text: Compounds according to formula II above are also active against transplanted tumors in mice. Table II which follows gives the results of testing (d,1)-2-ethoxy-1-[(2-trimethylaminoethoxy)phosphinyloxy]-eicosane,hydroxy inner salt, (A), against several such tumors. In the table, column 1 gives the name of the tumor, column 2 the dosage levels, column 3 toxic deaths, column 4, the percent tumor growth inhibition and column 5, the dosage schedule or regimen. Ten mice were given each dosage I.P. and a group of 20 mice used as controls.
Table III gives the results obtained by comparing the activity of the racemate (d,1)-2-ethoxy-1-[(2-trimethylaminoethoxy)phosphinyloxy]eicosane,hydroxy inner salt (A), the L-(-)enantiomer (B) and the D-(+)enantiomer (C) versus X-5563, a plasma cell myeloma.

[5] = tested on: spontaneously hypertensive rats (SHR); test: Blood pressure and heart rate in spontaneously hypertensive rats, femoral artery cannula; format: in vivo, rat; details: for Blood pressure: femoral artery cannula
Text: (§1) The above compounds are also active in lowering the blood pressure of spontaneously hypertensive rats (SHR). […] In the table, column 1 gives the compound used, column 2 the dose level, column 3, the route of administration, column 4, number of rats, column 5, the time of blood pressure measurement, column 6, blood pressure in mm (Hg), and column 7, heart rate.
**B.P. measured by femoral artery cannula.

[6] = tested on: spontaneously hypertensive rats (SHR); test: Blood pressure and heart rate in spontaneously hypertensive rats, tail cuff method; format: in vivo, rat; details: administered subcutaneously, various dose levels
Text: as §1
*B.P. measured by tail cuff method.

[7] = 3 mg/kg I.V., 0 hours (baseline)
[8] = 10 mg/kg I.V., 0 hours (baseline)

CCCCCCCCCCCCCCCCCCOCC(COP(=O)([O-])OCC[N+](C)(C)C)OC (stereo not drawn)
inhibits the proliferation of leukemic cells [1]: inhibits the proliferation of leukemic cells

CCCCCCCCCCCCCCCCCCC(COP(=O)([O-])OCC[N+](C)(C)C)OC (racemic) [Compound 7, (d,l)-2-Methoxy-1-[(2-trimethylaminoethoxy)phosphinyloxy]eicosane, hydroxy inner salt]
inhibition of rat paw swelling [2]: 68%
inhibition of the release of arachidonic acid (AA) from phospholipids [3]: 88%
inhibition of the total production of free AA and HETES [3]: 100%

CCCCCCCCCCCCCCCCCC[C@@H](COP(=O)([O-])OCC[N+](C)(C)C)OCC [Compound 1, D-2-Ethoxy-1-[(2-trimethylaminoethoxy)phosphinyloxy]eicosane, hydroxy inner salt]
Percent inhibition of Tumor growth ([4]; 17 mg/kg): 76%
Toxic deaths ([4]; 17 mg/kg): 2/10
Percent inhibition of Tumor growth ([4]; 25 mg/kg): 95%
Toxic deaths ([4]; 25 mg/kg): 1/10
Percent inhibition of Tumor growth ([4]; 35 mg/kg): Toxic
Toxic deaths ([4]; 35 mg/kg): 5/10
Percent inhibition of Tumor growth ([4]; 50 mg/kg): Toxic
Toxic deaths ([4]; 50 mg/kg): 10/10
Heart Rate [5, 7]: 326 beats/min
Blood pressure [5, 7]: 197 mm Hg
Heart Rate ([5]; 3 mg/kg I.V., 1.0 hours): 376 beats/min
Blood pressure ([5]; 3 mg/kg I.V., 1.0 hours): 194 mm Hg
Heart Rate ([5]; 3 mg/kg I.V., .08 hours): 373 beats/min
Blood pressure ([5]; 3 mg/kg I.V., .08 hours): 197 mm Hg
Heart Rate ([5]; 3 mg/kg I.V., .25 hours): 400 beats/min
Blood pressure ([5]; 3 mg/kg I.V., .25 hours): 200 mm Hg
Heart Rate ([5]; 3 mg/kg I.V., .5 hours): 346 beats/min
Blood pressure ([5]; 3 mg/kg I.V., .5 hours): 188 mm Hg
Heart Rate [5, 8]: 345 beats/min
Blood pressure [5, 8]: 183 mm Hg
Heart Rate ([5]; 10 mg/kg I.V., 1.0 hours): 355 beats/min
Blood pressure ([5]; 10 mg/kg I.V., 1.0 hours): 178 mm Hg
Heart Rate ([5]; 10 mg/kg I.V., .08 hours): 360 beats/min
Blood pressure ([5]; 10 mg/kg I.V., .08 hours): 185 mm Hg
Heart Rate ([5]; 10 mg/kg I.V., .25 hours): 360 beats/min
Blood pressure ([5]; 10 mg/kg I.V., .25 hours): 184 mm Hg
Heart Rate ([5]; 10 mg/kg I.V., .5 hours): 345 beats/min
Blood pressure ([5]; 10 mg/kg I.V., .5 hours): 177 mm Hg

CCCCCCCCCCCCCCCCCC[C@H](COP(=O)([O-])OCC[N+](C)(C)C)OCC [Compound 2, L-2-Ethoxy-1-[(2-trimethylaminoethoxy)phosphinyloxy]eicosane, hydroxy inner salt]
Percent inhibition of Tumor growth ([4]; 2.5 mg/kg): 18%
Toxic deaths ([4]; 2.5 mg/kg): 1/10
Percent inhibition of Tumor growth ([4]; 5 mg/kg): 44%
Toxic deaths ([4]; 5 mg/kg): 1/10
Percent inhibition of Tumor growth ([4]; 10 mg/kg): 53%
Toxic deaths ([4]; 10 mg/kg): 0/10
Percent inhibition of Tumor growth ([4]; 20 mg/kg): 67%
Toxic deaths ([4]; 20 mg/kg): 0/10
Heart Rate [5, 7]: 340 beats/min
Blood pressure [5, 7]: 177 mm Hg
Heart Rate ([5]; 3 mg/kg I.V., 1.0 hours): 380 beats/min
Blood pressure ([5]; 3 mg/kg I.V., 1.0 hours): 162 mm Hg
Heart Rate ([5]; 3 mg/kg I.V., .08 hours): 385 beats/min
Blood pressure ([5]; 3 mg/kg I.V., .08 hours): 107 mm Hg
Heart Rate ([5]; 3 mg/kg I.V., .25 hours): 367 beats/min
Blood pressure ([5]; 3 mg/kg I.V., .25 hours): 144 mm Hg
Heart Rate ([5]; 3 mg/kg I.V., .5 hours): 370 beats/min
Blood pressure ([5]; 3 mg/kg I.V., .5 hours): 162 mm Hg
hypotensive effects in SHR (in words) [6]: hypotensive effects

From patent publication US4659859A, “2-alkoxy-1-alkoxy phosphoryl dichlorides” (priority 1986, dated 1987)
